{"source": "patent US10048278B2", "about": "“Screening for neurotoxic amino acid associated with neurological disorders” (priority 2003, dated 2018)", "key": {"[1]": {"conditions": "rats; cited from earlier work"}, "[2]": {"test": "Free and protein-associated BMAA in superior frontal gyrus tissue of patients", "parameters": "species or system human", "method": "Tissues were provided by Dr. Patrick McGeer of the University of British Columbia, Vancouver, B.C., Canada. Autopsied tissues from patients were fixed in paraformaldehyde prior to storage in 15% buffered sucrose maintenance solution, where the time interval between death and autopsy varied from 4 hours to 5 days. Familial relationships, clinical histories, and histochemical characteristics of the Chamorro patients had been disclosed previously (McGeer et al, 1997, Neurology 49, 400-409). In addition, autopsied tissued from Canadian patients was provided, including two samples from two (2) Canadian patients who were clinically diagnosed with Alzheimer's disease prior to death, and thirteen (13) Canadian patients who died of natural causes other than progressive neurodegenerative diseases.\nTissues were homogenized twice in 0.1 N trichloroacetic acid and centrifuged at 15,800×g for 3 min to precipitate proteins and extract free amino acids. Protein-bound BMAA was released by hydrolysis of the precipitate at 110° C. in constant boiling 6N HCl for 24 hours. Particulate matter was removed from a 500 μl aliquot by ultrafiltration (Ultrafree-MC, Millipore Corp.) at 15,800×g and the resulting extract was freeze-dried. Amino acids were resuspended in 20 mM HCl, applied to a Sep-Pac C18 cartridge equilibrated with sequential washes of 100% methanol, 50% methanol in water, and a gradient of borate buffer:acetronitrile (0.5M borate:0-60% CH3CN) at 20% increments. BMAA in sample extracts was derivatized with 6-aminoquinolyl-N-hydroxysuccinimidyl carbamate following standardized protocols (Banack et al., 2003, Neurology 61: 387-389). Amino acids were quantified via HPLC separation as described above (Example 3). The presence of BMAA in the samples, as well as the identity and purity of the BMAA peak in the HPLC fractions, was verified by liquid chromatography mass spectroscopy (LC-MS) using an Agilent 1100 HPLC coupled with a variable wavelength diode array detector (DAD) and an SL single quadrapole MS with an atmospheric pressure ionization source (API) using the electrospray ionization interface (ESI). Compounds were separated on a Waters SymetryShield RP 18 column heated at 30° C. with a linear gradient elution of CH3CN (10 40%) in water. Nitrogen gas was purified and supplied to the ESI interface with a nebulizing pressure of 35 psi and two distinct modes were used for detection of compounds within the MS. The DAD detected compounds at 254 nm with a full spectral scan from 200 600 nm and 0.5 nm resolution within a semi micro flow cell. The initial signal was determined in positive scan mode with a 100 600 Da range at 50V fragmentor voltage. BMAA was identified using the extracted ion chromatogram in which the molecular ion peak was confirmed."}, "[3]": {"conditions": "Banack & Cox, 2003; cited from earlier work"}, "[4]": {"test": "BMAA in dried skin of flying fox museum specimens (HPLC)", "conditions": "Pteropus mariannus dried skin", "method": "BMAA levels were measured in tissues of Cycas micronesica Hill from Guam, and tissues of Pteropus mariannus mariannus, an indigenous flying fox (bat) of Guam. Because Pteropus mariannus mariannus is now highly endangered, BMAA levels were measured in skin tissue from museum specimens of three flying foxes that were collected five decades ago in Guam, preserved as dried study skins, and deposited at the Museum of Vertebrate Zoology (MVZ), at the University of California, Berkeley.\nBMAA was detected using high performance liquid chromatography (HPLC), and results were confirmed with thin layer chromatography (TLC) and gas chromatography-mass spectroscopy (GC-MS). For BMAA analysis, free amino acid extracts of flying fox and cycad tissues were prepared. Tissue samples were rehydrated for 30 minutes with water or trichloroacetic acid (mean tissue prep 80 mg/ml±32 SD), macerated, and filtered. Extracts were derivatized with 6-aminoquinolyl-N-hydrozysuccinimidyl carbamate (ACQ) following standardized protocols. […] The concentration of BMAA in samples was determined by the fluorescent tag using a Waters 2487 Dual-1 Fluorescence Detector, with excitation at 250 nm and emission at 395 nm. Detection of the ACQ-derivatized BMAA was dependent on concentration and quantification was accomplished with comparison of equal amounts of BMAA and a norleucine internal standard (representing a single mid-range concentration) resulting in a mean response of 51.2%. […] The limits of detection (LOD, defined as the lowest concentration of an analyte in a sample that can be detected though not necessarily quantitated) and limits of quantification (LOQ, the concentration within the linear range of the calibration curve relating absorbance to concentration) were determined by a concentration gradient of an authenticated standard (Sigma Chemical Co., St. Louis, Mo.). […] For data interpretations, all sample analyses were quantified within the range of the LOQ or were reported as not detected (ND) (Table 1). […]"}, "cyanobacterial symbiont": {"tested_on": "cyanobacterial symbiont", "test": "Effect of amino acid supplementation of BG-11 medium on cyanobacterial growth", "assay_type": "cell-based, Nostoc", "conditions": "BG-11 medium supplemented with glutamate or glutamine (0, 126, or 250 μmol/L)", "description": "Cyanobacterial symbionts were isolated from infected coralloid roots of Cycas micronesica Hill, harvested from three accessioned specimens (vouchered specimens of known provenance) growing in the National Tropical Botanical Garden, Kalaheo, Kauai, and grown as an axenic culture with repeated passages. For analysis of cycad root tissues infected with cyanobacterial symbiots, soil-borne bacteria were removed from root tissues of Cycas micronesica Hill by surface-sterilizing roots immersion in a solution of 70% ethanol for 3 min, followed by a 30 min immersion in 1.6% sodium hypochlorite with 2 drops of surfactant and 3 sequential washes with sterile deionized water. Surface-sterilized root explants (1-2 cm long) were excised and cultured onto standard BG-11 medium, pH 7.1 solidified with gellam gum (Sigma). Root explant cultures were incubated in a controlled environment room with a 16 h photoperiod at a light intensity of 35-45 μmole/m^2/s and temperatures of 25-30° C. After 7-10 days of culture, proliferation of colonies of the cyanobacterial symbiont of the root explants was clearly visible. Serial subculture of individual cyanobacterial colonies ensured the absence of residual BMAA from root tissue. […] Histological verification of culture purity was conducted prior to chemical analyses. […]"}, "[5]": {"conditions": "superior frontal gyrus, Alzheimer's, Canadian (first patient)"}, "[6]": {"conditions": "superior frontal gyrus, Alzheimer's, Canadian (second patient)"}, "[7]": {"conditions": "superior frontal gyrus, PDC (Lytico-bodig), Chamorro, donor one"}}}
{"compound": "CNC[C@H](N)C(=O)O", "note": "[BMAA, β-N-methylamino-L-alanine]", "values": [{"measurement": "injected BMAA not eliminated from either urine or feces", "setting": "[1]", "value": 90, "unit": "%"}, {"measurement": "quantity of protein-bound BMAA compared to free BMAA", "setting": "[2]; brain tissue, all other patients", "value": "60-130 fold"}, {"measurement": "BMAA recovered from the protein-bound fraction", "setting": "[2]; brain tissue, one Lytico-Bodig (ALS-PDC) patient with no unbound BMAA", "value": "more than 1 mg/g"}, {"measurement": "Protein-bound BMAA", "setting": "[2]; frontal cortex tissue, all six Chamorro patients who had died from ALS-PDC", "value": "149 to 1190", "unit": "µg/g"}, {"measurement": "Free BMAA", "setting": "[2]; frontal cortex tissue, five of six Chamorro patients who had died from ALS-PDC", "value": "3 to 10", "unit": "µg/g"}, {"measurement": "Free BMAA", "setting": "[2]; [5]", "value": 3.4, "unit": "µg/g"}, {"measurement": "Protein-bound BMAA", "setting": "[2]; [5]", "value": 220, "unit": "µg/g"}, {"measurement": "Free BMAA", "setting": "[2]; [6]", "value": 9.7, "unit": "µg/g"}, {"measurement": "Protein-bound BMAA", "setting": "[2]; [6]", "value": 264, "unit": "µg/g"}, {"measurement": "Free BMAA", "setting": "[2]; [7]", "value": 3.3, "unit": "µg/g"}, {"measurement": "Protein-bound BMAA", "setting": "[2]; [7]", "value": 433, "unit": "µg/g"}, {"measurement": "BMAA level in brain tissue", "setting": "[2]; thirteen Canadian patients without Alzheimer's diagnosis who died of other causes", "value": "did not have detectable levels"}, {"measurement": "stability in dried mammal specimens of great age", "setting": "[3]", "value": "stable"}, {"measurement": "Concentration", "setting": "[4]; specimen 114606", "value": "1,879 μg/g"}, {"measurement": "Concentration", "setting": "[4]; specimen 114607", "value": "7,502 μg/g"}, {"measurement": "Concentration", "setting": "[4]; specimen 114609", "value": "1,287 μg/g"}]}
{"compound": "NC(=O)CC[C@H](N)C(=O)O", "note": "[glutamine]", "values": [{"measurement": "cyanobacterial growth", "setting": "cyanobacterial symbiont", "value": "increased two-fold"}]}
{"compound": "N[C@@H](CCC(=O)O)C(=O)O", "note": "[GLU, glutamic acid]", "values": [{"measurement": "cyanobacterial growth", "setting": "cyanobacterial symbiont", "value": "increased two-fold"}]}
